Measured values: patent US8471005B2 (Cephalon, Inc., priority 2008, dated 2013)

Legend:
ALK = target: T1, ALK (Homo sapiens, UniProt Q9UM73); experiment: ALK Kinase Assay (ELISA/TRF, PLC-γ substrate); type: biochemical; settings: ALK kinase inhibition, 1 μM ATP; read-out: ALK Potency
T1 construct: host or cells: baculovirus expression system
How it was run: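 First, plates are coated with substrate (phospholipase C-γ, 10 μg/mL, TBS). Next, 30 ng/ml ALK initiates phosphorylation for 15 min at 37° C. Then Eu-N1 PT66 antibody is added for detection, and a nonlinear dose-response fit of percent inhibition yields IC50.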

JAK2 = target: T2, JAK2 (Homo sapiens, UniProt O60674); experiment: Recombinant Human JAK2 Kinase Assay (TRF); type: biochemical; settings: JAK2 kinase inhibition, 0.2 μM ATP; read-out: JAK2 Potency
T2 construct: host or cells: baculovirus expression system
T2 sequence (O60674 whole entry): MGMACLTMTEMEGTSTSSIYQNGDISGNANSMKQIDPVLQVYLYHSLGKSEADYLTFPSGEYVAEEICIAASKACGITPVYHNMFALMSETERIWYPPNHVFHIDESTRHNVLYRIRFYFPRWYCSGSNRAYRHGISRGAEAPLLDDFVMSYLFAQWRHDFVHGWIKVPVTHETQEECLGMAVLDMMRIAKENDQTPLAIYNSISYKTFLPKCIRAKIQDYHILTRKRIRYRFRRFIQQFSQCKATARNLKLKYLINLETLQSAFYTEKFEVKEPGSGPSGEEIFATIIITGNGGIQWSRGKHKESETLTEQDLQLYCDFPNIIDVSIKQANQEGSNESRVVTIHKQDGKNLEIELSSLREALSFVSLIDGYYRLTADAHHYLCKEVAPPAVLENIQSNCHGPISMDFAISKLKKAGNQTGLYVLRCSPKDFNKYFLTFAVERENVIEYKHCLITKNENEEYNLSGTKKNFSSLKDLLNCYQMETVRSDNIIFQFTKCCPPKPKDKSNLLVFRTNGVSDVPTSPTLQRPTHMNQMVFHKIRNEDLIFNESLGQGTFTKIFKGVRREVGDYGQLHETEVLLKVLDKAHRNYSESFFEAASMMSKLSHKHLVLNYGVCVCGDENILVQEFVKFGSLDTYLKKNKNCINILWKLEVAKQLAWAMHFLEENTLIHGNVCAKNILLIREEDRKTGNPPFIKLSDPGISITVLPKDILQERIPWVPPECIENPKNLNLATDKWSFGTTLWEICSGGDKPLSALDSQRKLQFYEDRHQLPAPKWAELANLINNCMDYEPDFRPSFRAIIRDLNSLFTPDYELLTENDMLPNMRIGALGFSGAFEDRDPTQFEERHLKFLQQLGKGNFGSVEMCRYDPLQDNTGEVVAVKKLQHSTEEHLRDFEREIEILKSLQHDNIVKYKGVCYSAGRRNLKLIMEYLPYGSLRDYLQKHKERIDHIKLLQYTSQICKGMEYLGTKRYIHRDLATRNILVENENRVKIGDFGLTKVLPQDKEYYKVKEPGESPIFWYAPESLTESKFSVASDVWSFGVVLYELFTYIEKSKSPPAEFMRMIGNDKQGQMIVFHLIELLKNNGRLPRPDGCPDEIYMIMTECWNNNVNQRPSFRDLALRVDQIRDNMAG
How it was run: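 Baculovirus-expressed JAK2 (15 ng/ml) phosphorylated a biotinylated 15-mer peptide captured on Neutravidin, in 20 mM HEPES pH 7.2, 0.2 μM ATP, 1 mM MnCl2, 0.1% BSA, 2.5% DMSO final, 20 min at room temperature. Phosphoproduct detected by time-resolved fluorescence with Eu-N1-labelled PY100 antibody.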

T1 sequence (Q9UM73 19-1620): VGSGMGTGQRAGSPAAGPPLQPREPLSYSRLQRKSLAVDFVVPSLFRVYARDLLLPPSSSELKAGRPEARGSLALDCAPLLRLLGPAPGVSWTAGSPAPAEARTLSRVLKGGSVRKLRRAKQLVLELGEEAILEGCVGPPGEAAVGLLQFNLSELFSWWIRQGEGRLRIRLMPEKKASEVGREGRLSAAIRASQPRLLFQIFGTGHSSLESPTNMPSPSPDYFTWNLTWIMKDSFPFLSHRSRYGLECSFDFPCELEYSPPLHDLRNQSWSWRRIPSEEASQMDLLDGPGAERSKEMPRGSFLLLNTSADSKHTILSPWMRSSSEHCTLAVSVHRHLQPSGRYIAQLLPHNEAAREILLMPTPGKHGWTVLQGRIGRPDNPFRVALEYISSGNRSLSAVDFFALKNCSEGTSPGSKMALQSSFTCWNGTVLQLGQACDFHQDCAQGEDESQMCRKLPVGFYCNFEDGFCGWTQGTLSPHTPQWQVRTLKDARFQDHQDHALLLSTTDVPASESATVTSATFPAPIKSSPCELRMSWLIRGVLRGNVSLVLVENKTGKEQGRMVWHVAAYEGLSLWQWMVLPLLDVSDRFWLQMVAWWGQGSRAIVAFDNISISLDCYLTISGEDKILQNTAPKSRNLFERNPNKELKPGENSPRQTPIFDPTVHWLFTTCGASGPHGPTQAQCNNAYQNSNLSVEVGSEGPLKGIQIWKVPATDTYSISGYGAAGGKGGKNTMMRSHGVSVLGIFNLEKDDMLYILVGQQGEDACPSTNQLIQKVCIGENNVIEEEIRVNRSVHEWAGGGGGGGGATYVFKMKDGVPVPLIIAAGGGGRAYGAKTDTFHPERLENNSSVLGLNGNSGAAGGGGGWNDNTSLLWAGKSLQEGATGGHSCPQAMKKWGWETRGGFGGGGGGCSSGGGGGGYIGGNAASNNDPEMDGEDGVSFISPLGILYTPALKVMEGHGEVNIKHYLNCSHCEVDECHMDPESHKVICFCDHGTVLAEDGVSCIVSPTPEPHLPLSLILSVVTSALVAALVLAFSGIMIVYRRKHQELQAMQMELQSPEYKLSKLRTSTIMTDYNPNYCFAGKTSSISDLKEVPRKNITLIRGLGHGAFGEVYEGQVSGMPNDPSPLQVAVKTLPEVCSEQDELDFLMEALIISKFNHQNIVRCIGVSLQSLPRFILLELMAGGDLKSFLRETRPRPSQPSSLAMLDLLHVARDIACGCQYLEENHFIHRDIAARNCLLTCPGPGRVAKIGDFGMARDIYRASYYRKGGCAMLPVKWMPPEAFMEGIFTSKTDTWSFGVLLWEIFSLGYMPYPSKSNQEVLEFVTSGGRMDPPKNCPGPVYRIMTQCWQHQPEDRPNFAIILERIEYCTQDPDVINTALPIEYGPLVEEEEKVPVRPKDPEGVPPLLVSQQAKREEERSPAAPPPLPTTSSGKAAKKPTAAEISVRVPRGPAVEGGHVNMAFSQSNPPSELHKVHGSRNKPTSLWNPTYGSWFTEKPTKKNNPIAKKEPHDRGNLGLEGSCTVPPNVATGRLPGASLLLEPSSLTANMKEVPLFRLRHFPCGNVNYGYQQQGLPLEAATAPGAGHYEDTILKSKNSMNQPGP

Compound	IC50 (ALK) [nM]	IC50 (JAK2) [nM]
COc1ccccc1-c1ccc2cnc(Nc3ccc4c(c3)N(C)CCO4)nn12 [Example 645, [7-(2-Methoxy-phenyl)-pyrrolo[2,1-f][1,2,4]triazin-2-yl]-(4-methyl-3,4-dihydro-2H-benzo[1,4]oxazin-6-yl)-amine]	100 to 1000	< 100
Cn1cc(-c2ccc3cnc(Nc4ccc5c(c4)NC(=O)C5)nn23)cn1 [Example 646, 6-[7-(1-Methyl-1H-pyrazol-4-yl)-pyrrolo[2,1-f][1,2,4]triazin-2-ylamino]-1,3-dihydro-indol-2-one]	1000 to 10000	< 100
COc1ccccc1-c1ccc2cnc(Nc3ccc4c(c3)OCC(=O)N4C)nn12 [Example 647, 7-[7-(2-Methoxy-phenyl)-pyrrolo[2,1-f][1,2,4]triazin-2-ylamino]-4-methyl-4H-benzo[1,4]oxazin-3-one]	100 to 1000	< 100
CN1C(=O)COc2cc(Nc3ncc4ccc(-c5cccc(S(=O)(=O)NC(C)(C)C)c5)n4n3)ccc21 [Example 648, N-tert-Butyl-3-[2-(4-methyl-3-oxo-3,4-dihydro-2H-benzo[1,4]oxazin-7-ylamino)-pyrrolo[2,1-f][1,2,4]triazin-7-yl]-benzenesulfonamide]	100 to 1000	< 100
CN1C(=O)COc2cc(Nc3ncc4ccc(-c5cccnc5)n4n3)ccc21 [Example 649, 4-Methyl-7-(7-pyridin-3-yl-pyrrolo[2,1-f][1,2,4]triazin-2-ylamino)-4H-benzo[1,4]oxazin-3-one]	1000 to 10000	< 100
CN1CCOc2ccc(Nc3ncc4ccc(-c5cccc(S(=O)(=O)NC(C)(C)C)c5)n4n3)cc21 [Example 650, N-tert-Butyl-3-[2-(4-methyl-3,4-dihydro-2H-benzo[1,4]oxazin-6-ylamino)-pyrrolo[2,1-f][1,2,4]triazin-7-yl]-benzenesulfonamide]	100 to 1000	< 100
CCN1CCOC(c2ccc(Nc3ncc4ccc(-c5cccc(NS(C)(=O)=O)c5)n4n3)cc2)C1 (stereo not shown) [Example 651, N-(3-{2-[4-(4-Ethyl-morpholin-2-yl)-phenylamino]-pyrrolo[2,1-f][1,2,4]triazin-7-yl}phenyl)methanesulfonamide]	100 to 1000	< 100
CC(C)(C)NS(=O)(=O)c1cccc(-c2ccc3cnc(Nc4ccc5c(c4)NC(=O)C5)nn23)c1 [Example 652, N-tert-Butyl-3-[2-(2-oxo-2,3-dihydro-1H-indol-6-ylamino)-pyrrolo[2,1-f][1,2,4]triazin-7-yl]-benzenesulfonamide]	1000 to 10000	< 100
CCN1CCOC(c2ccc(Nc3ncc4ccc(-c5cccc(S(=O)(=O)NC(C)(C)C)c5)n4n3)cc2)C1 (stereo not shown) [Example 653, N-tert-Butyl-3-{2-[4-(4-ethyl-morpholin-2-yl)-phenylamino]-pyrrolo[2,1-f][1,2,4]triazin-7-yl}benzenesulfonamide]	100 to 1000	< 100
CC(C)(C)NS(=O)(=O)c1cccc(-c2ccc3cnc(Nc4ccc5c(c4)NC(=O)C5(C)C)nn23)c1 [Example 655, N-tert-Butyl-3-[2-(3,3-dimethyl-2-oxo-2,3-dihydro-1H-indol-6-ylamino)-pyrrolo[2,1-f][1,2,4]triazin-7-yl]-benzenesulfonamide]	100 to 1000	< 100
COc1ccccc1-c1ccc2cnc(Nc3ccc4c(c3)NC(=O)C4(C)C)nn12 [Example 656, 6-[7-(2-Methoxy-phenyl)-pyrrolo[2,1-f][1,2,4]triazin-2-ylamino]-3,3-dimethyl-1,3-dihydro-indol-2-one]	100 to 1000	< 100
COc1ccc(-c2ccc3cnc(Nc4ccc5c(c4)NC(=O)C5(C)C)nn23)cn1 [Example 658, 6-[7-(6-Methoxy-pyridin-3-yl)-pyrrolo[2,1-f][1,2,4]triazin-2-ylamino]-3,3-dimethyl-1,3-dihydro-indol-2-one]	> 10000	< 100
COc1ccccc1-c1ccc2cnc(Nc3ccc4c(c3)CS(=O)(=O)C4)nn12 [Example 659, (2,2-Dioxo-2,3-dihydro-1H-2$1(6)-benzo[c]thiophen-5-yl)-[7-(2-methoxy-phenyl)-pyrrolo[2,1-f][1,2,4]triazin-2-yl]-amine]	< 100	< 100
COc1ccccc1-c1ccc2cnc(Nc3ccc(C4CCN(CC(N)=O)CC4)cc3)nn12 [Example 660, 2-(4-{4-[7-(2-Methoxy-phenyl)-pyrrolo[2,1-f][1,2,4]triazin-2-ylamino]-phenyl}-piperidin-1-yl)-acetamide]	< 100	< 100
CN1CCC(c2ccc(Nc3ncc4ccc(-c5cccc(N(C)C)c5)n4n3)cc2)CC1 [Example 662, [7-(3-Dimethylamino-phenyl)-pyrrolo[2,1-f][1,2,4]triazin-2-yl]-[4-(1-methyl-piperidin-4-yl)-phenyl]-amine]	< 100	< 100
CC(C)(C)NS(=O)(=O)c1cccc(-c2ccc3cnc(Nc4ccc5c(c4)CS(=O)(=O)C5)nn23)c1 [Example 663, N-tert-Butyl-3-[2-(2,2-dioxo-2,3-dihydro-1H-2$1(6)-benzo[c]thiophen-5-ylamino)-pyrrolo[2,1-f][1,2,4]triazin-7-yl]-benzenesulfonamide]	100 to 1000	< 100
NC(=O)CN1CCC(c2ccc(Nc3ncc4ccc(C5=CCNCC5)n4n3)cc2)CC1 [Example 664, 2-(4-{4-[7-(1,2,3,6-Tetrahydro-pyridin-4-yl)-pyrrolo[2,1-f][1,2,4]triazin-2-ylamino]-phenyl}-piperidin-1-yl)-acetamide]	100 to 1000	< 100
CC(C)(C)NS(=O)(=O)c1cccc(-c2ccc3cnc(Nc4cncc(C(N)=O)c4)nn23)c1 [Example 665, 5-[7-(3-tert-Butylsulfamoyl-phenyl)-pyrrolo[2,1-f][1,2,4]triazin-2-ylamino]-nicotinamide]	> 10000	< 100
CN(c1ccccc1-c1ccc2cnc(Nc3cncc(C(N)=O)c3)nn12)S(C)(=O)=O [Example 666, 5-{7-[2-(Methanesulfonyl-methyl-amino)-phenyl]-pyrrolo[2,1-f][1,2,4]triazin-2-ylamino}-nicotinamide]	1000 to 10000	< 100
COc1ccc(-c2ccc3cnc(Nc4cncc(C(N)=O)c4)nn23)cn1 [Example 667, 5-[7-(6-Methoxy-pyridin-3-yl)-pyrrolo[2,1-f][1,2,4]triazin-2-ylamino]-nicotinamide]	100 to 1000	< 100
COc1ccccc1-c1ccc2cnc(Nc3ccc(C4CCN(CCO)CC4)cc3)nn12 [Example 668, 2-(4-{4-[7-(2-Methoxy-phenyl)-pyrrolo[2,1-f][1,2,4]triazin-2-ylamino]-phenyl}-piperidin-1-yl)-ethanol]	< 100	< 100
CN(c1ccccc1-c1ccc2cnc(Nc3ccc(C4CCN(CCO)CC4)cc3)nn12)S(C)(=O)=O [Example 669, N-[2-(2-{4-[1-(2-Hydroxy-ethyl)-piperidin-4-yl]-phenylamino}-pyrrolo[2,1-f][1,2,4]triazin-7-yl)-phenyl]-N-methyl-methanesulfonamide]	< 100	< 100
CC(C)(C)NS(=O)(=O)c1cccc(-c2ccc3cnc(Nc4ccc(C5CCN(CCO)CC5)cc4)nn23)c1 [Example 670, N-tert-Butyl-3-(2-{4-[1-(2-hydroxy-ethyl)-piperidin-4-yl]-phenylamino}-pyrrolo[2,1-f][1,2,4]triazin-7-yl)-benzenesulfonamide]	100 to 1000	< 100
COc1ccc(-c2ccc3cnc(Nc4ccc(C5CCN(CCO)CC5)cc4)nn23)cn1 [Example 671, 2-(4-{4-[7-(6-Methoxy-pyridin-3-yl)-pyrrolo[2,1-f][1,2,4]triazin-2-ylamino]-phenyl}-piperidin-1-yl)-ethanol]	100 to 1000	< 100
COc1ccccc1-c1ccc2cnc(Nc3ccc4c(c3)C(NC(=O)OC(C)(C)C)C(O)C4)nn12 (stereo not shown) [Example 673, {2-Hydroxy-6-[7-(2-methoxy-phenyl)-pyrrolo[2,1-f][1,2,4]triazin-2-ylamino]-indan-1-yl}-carbamic acid tert-butyl ester]	100 to 1000	< 100
CC(C)(C)OC(=O)N1CCC=C(c2ccc3cnc(Nc4ccc(C5CCN(CC(N)=O)CC5)cc4)nn23)C1 [Example 675, 5-{2-[4-(1-Carbamoylmethyl-piperidin-4-yl)-phenylamino]-pyrrolo[2,1-f][1,2,4]triazin-7-yl}-3,6-dihydro-2H-pyridine-1-carboxylic acid tert-butyl ester]	1000 to 10000	< 100
COc1cc(-c2ccc3cnc(Nc4ccc(C5CCN(C)CC5)cc4)nn23)ccn1 [Example 676, [7-(2-Methoxy-pyridin-4-yl)-pyrrolo[2,1-f][1,2,4]triazin-2-yl]-[4-(1-methyl-piperidin-4-yl)-phenyl]-amine]	100 to 1000	< 100
O=S(=O)(c1cccc(-c2ccc3cnc(Nc4ccc(C5CCN(CCO)CC5)cc4)nn23)c1)N1CCOCC1 [Example 677, 2-[4-(4-{7-[3-(Morpholine-4-sulfonyl)-phenyl]-pyrrolo[2,1-f][1,2,4]triazin-2-ylamino}-phenyl)-piperidin-1-yl]-ethanol]	100 to 1000	< 100
O=S(=O)(c1cccc(-c2ccc3cnc(Nc4ccc(C5CCN(CCO)CC5)cc4)nn23)c1)N1CCCC1 [Example 678, 2-[4-(4-{7-[3-(Pyrrolidine-1-sulfonyl)-phenyl]-pyrrolo[2,1-f][1,2,4]triazin-2-ylamino}-phenyl)-piperidin-1-yl]ethanol]	100 to 1000	< 100
